As a reminder, the IC50 is the concentration needed to halve the response being measured.

Drawing on ChEMBL document CHEMBL4602694, “Suppression of Drug-Resistant Non-Small-Cell Lung Cancer with Inhibitors Targeting Minichromosomal Maintenance Protein” (J Med Chem, 2020), this text covers IC50 and Activity for 1 compound.

A value given as a limit tells only on which side of the number the result lay.

One assay has as its system PC-9. Nature of the assay: Antiproliferative activity against human PC9 cells assessed as reduction in cell viability incubated for 72 hrs by SRB assay. The format is functional, cell-based. Particulars: PC-9, 72 h. A general note: Sulforhodamine B stains cellular protein and so reports cell mass.
Assay [1] has as its target DNA replication licensing factor MCM7 (Homo sapiens) (UniProt P33993). Nature of the assay: Induction of ubiquitination of MCM7 in human NCI-H1975 cells incubated for 24 hrs by immunoblot analysis. In kind it is cell-based. (In general: In western blotting, separated proteins are transferred to a membrane and probed.)
The target of assay [2] is T1, DNA replication licensing factor MCM3 (Homo sapiens) (UniProt P25205).
T1 sequence (whole entry): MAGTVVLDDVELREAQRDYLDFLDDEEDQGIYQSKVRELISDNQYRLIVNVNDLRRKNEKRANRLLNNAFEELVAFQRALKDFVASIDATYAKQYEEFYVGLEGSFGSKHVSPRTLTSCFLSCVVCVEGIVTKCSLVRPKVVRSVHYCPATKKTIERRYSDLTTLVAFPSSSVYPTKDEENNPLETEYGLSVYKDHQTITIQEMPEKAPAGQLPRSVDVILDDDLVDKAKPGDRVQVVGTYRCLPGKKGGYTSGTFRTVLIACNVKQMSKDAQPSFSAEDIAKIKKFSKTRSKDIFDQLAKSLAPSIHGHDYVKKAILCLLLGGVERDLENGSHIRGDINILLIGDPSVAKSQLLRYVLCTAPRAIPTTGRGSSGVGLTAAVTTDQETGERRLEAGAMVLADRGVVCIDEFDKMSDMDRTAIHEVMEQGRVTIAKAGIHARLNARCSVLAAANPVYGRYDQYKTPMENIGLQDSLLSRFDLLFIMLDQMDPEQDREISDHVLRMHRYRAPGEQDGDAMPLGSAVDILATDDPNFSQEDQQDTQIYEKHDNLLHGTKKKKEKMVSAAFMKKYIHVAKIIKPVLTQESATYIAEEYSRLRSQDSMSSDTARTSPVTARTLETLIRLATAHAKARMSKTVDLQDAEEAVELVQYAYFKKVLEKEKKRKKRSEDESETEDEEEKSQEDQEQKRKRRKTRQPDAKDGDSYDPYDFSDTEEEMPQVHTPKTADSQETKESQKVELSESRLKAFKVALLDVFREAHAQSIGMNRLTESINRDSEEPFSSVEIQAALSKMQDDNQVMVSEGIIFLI
Nature of the assay: Induction of ubiquitination of MCM3 in human NCI-H1975 cells incubated for 48 hrs by immunoblot analysis (reference value: 1). The format is cell-based.

Assay [3] has as its target T2, DNA replication licensing factor MCM4 (Homo sapiens) (UniProt P33991).
T2 sequence (whole entry): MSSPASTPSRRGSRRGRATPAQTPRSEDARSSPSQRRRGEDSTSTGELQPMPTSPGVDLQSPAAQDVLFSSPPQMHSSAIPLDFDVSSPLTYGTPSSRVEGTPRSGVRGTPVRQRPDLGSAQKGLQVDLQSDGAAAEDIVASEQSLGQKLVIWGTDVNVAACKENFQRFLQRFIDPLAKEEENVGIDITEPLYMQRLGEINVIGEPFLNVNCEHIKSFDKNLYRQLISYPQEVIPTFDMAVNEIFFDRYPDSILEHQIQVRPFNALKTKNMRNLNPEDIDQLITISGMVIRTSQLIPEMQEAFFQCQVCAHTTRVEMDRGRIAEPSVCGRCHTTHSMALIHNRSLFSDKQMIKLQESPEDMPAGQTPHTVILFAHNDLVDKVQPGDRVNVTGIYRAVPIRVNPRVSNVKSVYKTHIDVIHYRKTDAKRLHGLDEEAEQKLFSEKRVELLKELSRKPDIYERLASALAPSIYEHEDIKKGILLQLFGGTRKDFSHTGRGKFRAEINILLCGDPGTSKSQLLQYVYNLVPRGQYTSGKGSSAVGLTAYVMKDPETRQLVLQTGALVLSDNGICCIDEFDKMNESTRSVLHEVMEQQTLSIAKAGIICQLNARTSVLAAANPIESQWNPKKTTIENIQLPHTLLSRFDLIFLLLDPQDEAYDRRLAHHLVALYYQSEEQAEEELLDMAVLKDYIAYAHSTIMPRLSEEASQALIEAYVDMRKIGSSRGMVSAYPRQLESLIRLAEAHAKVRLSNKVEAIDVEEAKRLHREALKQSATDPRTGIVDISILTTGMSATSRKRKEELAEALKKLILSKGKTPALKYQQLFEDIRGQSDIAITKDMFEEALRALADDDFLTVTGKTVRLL
Nature of the assay: Induction of ubiquitination of MCM4 in human NCI-H1975 cells incubated for 48 hrs by immunoblot analysis (reference value: 1). The format is cell-based.

The target of assay [4] is T3, DNA replication licensing factor MCM5 (Homo sapiens) (UniProt P33992).
T3 sequence (whole entry): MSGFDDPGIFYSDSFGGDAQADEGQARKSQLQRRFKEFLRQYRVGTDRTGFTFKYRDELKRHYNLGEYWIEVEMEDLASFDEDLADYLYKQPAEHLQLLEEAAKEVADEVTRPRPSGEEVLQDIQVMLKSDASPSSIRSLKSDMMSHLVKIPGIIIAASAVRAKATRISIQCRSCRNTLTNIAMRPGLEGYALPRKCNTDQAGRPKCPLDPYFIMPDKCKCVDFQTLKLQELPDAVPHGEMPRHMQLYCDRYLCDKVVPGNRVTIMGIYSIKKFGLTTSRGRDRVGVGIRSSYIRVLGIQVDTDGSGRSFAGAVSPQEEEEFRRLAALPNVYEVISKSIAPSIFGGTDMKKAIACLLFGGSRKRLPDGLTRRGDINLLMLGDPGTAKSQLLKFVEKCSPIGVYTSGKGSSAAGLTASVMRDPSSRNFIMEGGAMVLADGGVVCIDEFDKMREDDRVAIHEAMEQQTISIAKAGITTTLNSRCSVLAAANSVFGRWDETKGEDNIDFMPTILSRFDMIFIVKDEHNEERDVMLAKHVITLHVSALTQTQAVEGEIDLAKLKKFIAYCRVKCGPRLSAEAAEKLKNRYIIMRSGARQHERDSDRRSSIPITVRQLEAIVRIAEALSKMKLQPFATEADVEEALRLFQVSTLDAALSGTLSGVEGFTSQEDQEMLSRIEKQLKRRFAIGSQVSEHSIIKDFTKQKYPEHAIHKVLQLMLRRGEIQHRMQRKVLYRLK
Nature of the assay: Induction of ubiquitination of MCM5 in human NCI-H1975 cells incubated for 72 hrs by immunoblot analysis (reference value: 1). The format is cell-based.

Sequence of DNA replication licensing factor MCM7 (Homo sapiens) (P33993 whole entry): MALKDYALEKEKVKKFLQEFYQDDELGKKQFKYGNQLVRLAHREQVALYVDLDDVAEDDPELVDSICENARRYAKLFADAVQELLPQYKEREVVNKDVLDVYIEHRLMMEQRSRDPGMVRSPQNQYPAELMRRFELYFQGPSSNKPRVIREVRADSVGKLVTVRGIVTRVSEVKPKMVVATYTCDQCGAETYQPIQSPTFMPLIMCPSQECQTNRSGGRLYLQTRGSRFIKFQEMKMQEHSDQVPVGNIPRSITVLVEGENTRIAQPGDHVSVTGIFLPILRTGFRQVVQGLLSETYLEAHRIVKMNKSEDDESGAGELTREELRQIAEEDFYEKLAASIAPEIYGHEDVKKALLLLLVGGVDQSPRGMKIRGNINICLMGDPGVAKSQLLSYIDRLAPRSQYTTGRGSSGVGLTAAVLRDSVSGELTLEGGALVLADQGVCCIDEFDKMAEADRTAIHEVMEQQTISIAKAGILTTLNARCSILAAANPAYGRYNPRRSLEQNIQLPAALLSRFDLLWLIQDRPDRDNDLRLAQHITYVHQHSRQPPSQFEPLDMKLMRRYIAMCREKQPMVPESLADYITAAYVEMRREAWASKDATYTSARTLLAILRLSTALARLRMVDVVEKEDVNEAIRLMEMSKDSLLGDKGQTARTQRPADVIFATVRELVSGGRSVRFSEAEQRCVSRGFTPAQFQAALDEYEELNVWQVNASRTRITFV

With `Cc1oc2c(c1C(=O)NCCCn1ccnc1)C(=O)c1ccccc1C2=O`, the IC50 with PC-9 was less than 100 nM. Also, the Activity result is “Dose-dependent effect” in assay [1], 1.1 in assay [2], 1.1 in assay [3] and 0.8 in assay [4].
